# From PMC11416114 (Infection and Drug Resistance, 2024)
# “And” between values parts separate entries of the source, which are not always exact repeats. Equal values may be shown once. Read-outs that look alike come from different tables or passages of the source.
# Key:
# [1] = critically ill adult patients; for Residual variability (σ) stdev, Final Model Estimate, Mean: log-additive error
# [2] = Chinese patients aged 60 and above; typical patient; cited from earlier work
# [3] = limit for steady-state Cpeak; cited from earlier work
# [4] = eight CRRT supported critically ill patients; cited from earlier work
# [5] = cited from earlier work
# [6] = mild to moderate hepatic impairment; cited from earlier work
# [7] = cited from earlier work; remark: listed apart in the source
# SARS-CoV-2 = conditions: free exposure, cited from earlier work
# [8] = cited from earlier work; remark: listed apart in the source
# clinical = conditions: human, in vivo, 300 mg
# [9] = healthy young adults, NIR/RIT 2250mg/100mg once
smiles,measurement,setting,value
"CC(C)c1nc(CN(C)C(=O)N[C@H](C(=O)N[C@@H](Cc2ccccc2)C[C@H](O)[C@H](Cc2ccccc2)NC(=O)OCc2cncs2)C(C)C)cs1 [RIT, Ritonavir]","Residual variability (σ) stdev, Bootstrap Estimate, Median",[1]; bootstrap,0.34
same,"ω^2CL (inter-individual variability), Bootstrap Estimate, Median",[1]; bootstrap,0.53
same,"ω^2V (inter-individual variability), Bootstrap Estimate, Median",[1]; bootstrap,1.64
same,"tvCL, Bootstrap of Final Model Estimate, Median",[1]; bootstrap 1000 samples,10.3 L/h
same,"tvKa, Bootstrap of Final Model Estimate, Median",[1]; bootstrap 1000 samples,1.10 h⁻¹
same,"tvV, Bootstrap of Final Model Estimate, Median",[1]; bootstrap 1000 samples,82.4 L
same,"ω^2CL (inter-individual variability), Final Model Estimate, Mean",[1]; final model,0.57
same,"ω^2V (inter-individual variability), Final Model Estimate, Mean",[1]; final model,1.27
same,"Residual variability (σ) stdev, Final Model Estimate, Mean",[1]; final model,0.34
same,"tvCL, Final Model Estimate, Mean",[1]; one-compartment final model,10.3 L/h
same,"tvKa, Final Model Estimate, Mean",[1]; one-compartment final model,0.64 h⁻¹
same,"tvV, Final Model Estimate, Mean",[1]; one-compartment final model,84.9 L
"CC(C)(C)[C@H](NC(=O)C(F)(F)F)C(=O)N1C[C@H]2[C@@H]([C@H]1C(=O)N[C@H](C#N)C[C@@H]1CCNC1=O)C2(C)C [NIR, Nirmatrelvir]",CL/F,[2],4.16 L/h
same,Ka,[2],0.776 h⁻¹
same,V/F,[2],39.1 L
same,human no observed adverse effect levels (NOAELs),[3],"79,700 ng/mL"
same,valley concentrations,[4],3325.34 to 15625.46 ng/mL
same,CL/F lower than normal renal function group,[5]; moderate renal impairment group,47%
same,CL/F lower than normal renal function group,[5]; severe renal impairment group,80%
same,median plasma concentration and AUC in hepatic impairment,[6],comparable to those with normal hepatic function
same,CL/F,[7]; healthy adults aged 18–60,8.2 L/h
same,Ka,[7]; healthy adults aged 18–60,1.11 h⁻¹
same,V/F,[7]; healthy adults aged 18–60,111 L
same,AUC,[7]; [9],188.2 µg·h/mL
same,CL/F,[7]; [9],3.97 L/h
same,V/F,[7]; [9],40.06 L
same,in vitro EC90 (free),SARS-CoV-2,0.0905 mg/L
same,EC90,SARS-CoV-2; read-out: in vitro EC90 (free),0.181 µM
same,protein binding,[8],approximately 70%
same,AUC,clinical,107 µg·h/mL
same,"absorption rate constant (Ka), mean (SD)",[1],0.42 (0.10) h^−1 and 0.42 h^−1
same,"apparent clearance (CL/F), mean (SD)",[1],3.6 (0.26) L/h and 3.6 L/h
same,"Residual variability (σ) stdev, Bootstrap Estimate, Median",[1]; bootstrap,0.26
same,"dCLdAUCRIT, Bootstrap Estimate, Median",[1]; bootstrap,−0.44
same,"dCLdCrCL, Bootstrap Estimate, Median",[1]; bootstrap,0.58
same,"ω^2V (inter-individual variability), Bootstrap Estimate, Median",[1]; bootstrap,0.60
same,"tvCL, Bootstrap of Final Model Estimate, Median",[1]; bootstrap 1000 samples,3.2 L/h
same,"tvKa, Bootstrap of Final Model Estimate, Median",[1]; bootstrap 1000 samples,0.61 h⁻¹
same,"Residual variability (σ) stdev, Final Model Estimate, Mean",[1]; final model,0.26
same,"tvCL, Final Model Estimate, Mean",[1]; one-compartment final model,3.6 L/h
same,"tvKa, Final Model Estimate, Mean",[1]; one-compartment final model,0.42 h⁻¹
